Active and inactive are the calls of the source.
Assays:
Phospholipase A2 = Phospholipase A2 (Homo sapiens, UniProt P04054); type: functional;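 further: confirmatory dose-response counterscreen on phospholipase A2, testing hits that came from an ultra-high-throughput screen for ATG4B inhibitors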
[1] = target: T1, Heat shock factor protein 1 (Mus musculus, UniProt P38532); test: HSF1 potentiators in luciferase reporter cells, confirmation, cell-based, NIH3T3, luminescence, dose retest (AID 435004); type: functional;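 further: stress induced by proteasome inhibitor MG132 added 30 min after compound; luciferase reporter driven by HSF1 response element in NIH3T3 cells; actives raise luminescence as potentiators of the MG132 stress response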
T1 sequence (P38532 whole entry): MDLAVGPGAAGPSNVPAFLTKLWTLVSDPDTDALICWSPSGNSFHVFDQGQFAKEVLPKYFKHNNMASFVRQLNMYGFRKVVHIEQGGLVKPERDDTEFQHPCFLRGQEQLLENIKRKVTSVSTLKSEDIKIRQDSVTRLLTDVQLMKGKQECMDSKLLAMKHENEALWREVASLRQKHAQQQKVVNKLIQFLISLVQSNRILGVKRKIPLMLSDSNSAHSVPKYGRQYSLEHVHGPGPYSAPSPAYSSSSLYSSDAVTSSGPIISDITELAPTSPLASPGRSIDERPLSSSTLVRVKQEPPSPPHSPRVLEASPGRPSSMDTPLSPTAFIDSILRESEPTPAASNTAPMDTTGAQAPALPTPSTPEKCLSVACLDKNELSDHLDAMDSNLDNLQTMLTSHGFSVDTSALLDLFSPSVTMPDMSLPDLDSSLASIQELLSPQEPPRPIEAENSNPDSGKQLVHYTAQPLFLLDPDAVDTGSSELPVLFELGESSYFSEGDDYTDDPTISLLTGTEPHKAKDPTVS

Cysteine protease ATG4B = target: T2, Cysteine protease ATG4B (Homo sapiens, UniProt Q9Y4P1); type: functional;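 further: Fluorescence-based dose-response confirmation assay measuring inhibition of ATG4B activity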
T2 sequence (Q9Y4P1 whole entry): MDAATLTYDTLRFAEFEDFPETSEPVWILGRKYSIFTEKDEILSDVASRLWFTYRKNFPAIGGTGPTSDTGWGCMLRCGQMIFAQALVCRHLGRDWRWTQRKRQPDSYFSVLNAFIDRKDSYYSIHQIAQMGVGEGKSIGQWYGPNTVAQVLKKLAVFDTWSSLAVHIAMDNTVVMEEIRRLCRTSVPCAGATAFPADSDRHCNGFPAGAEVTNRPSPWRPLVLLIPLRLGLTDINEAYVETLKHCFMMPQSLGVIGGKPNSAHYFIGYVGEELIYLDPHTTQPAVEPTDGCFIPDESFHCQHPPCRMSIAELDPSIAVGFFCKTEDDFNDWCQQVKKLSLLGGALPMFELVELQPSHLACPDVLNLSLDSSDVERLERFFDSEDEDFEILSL

[2] = target: T3, Endoribonuclease toxin MazF (Escherichia coli K-12, UniProt P0AE70); test: fluorescent RNA oligo signal without MazF, dose response, counter-screen for MazEF activator project, biochemical, fluorescence, single-stranded RNase substrate (AID 588502); type: functional
T3 sequence (P0AE70 whole entry): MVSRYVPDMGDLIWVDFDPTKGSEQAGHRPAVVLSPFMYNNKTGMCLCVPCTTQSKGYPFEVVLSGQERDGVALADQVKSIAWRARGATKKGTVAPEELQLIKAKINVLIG

[3] = target: T3, Endoribonuclease toxin MazF; test: MazF toxin RNase activators, dose response, biochemical, fluorescence, single-stranded RNA substrate, uHTS hits (AID 588481); type: functional
[4] = target: Delta-type opioid receptor (Homo sapiens, UniProt P41143); test: Counterscreen for agonists of heterodimerization of the mu 1 (OPRM1) and delta 1 (OPRD1) opioid receptors: Luminescence-based cell-based high throughput dose response assay to identify agonists of OPRD1 homodimerization. [Related pubchem assays (depositor defined):AID504326, AID504355, AID504692, AID504904, AID504905]; type: functional
Sequence of Delta-type opioid receptor (P41143 whole entry): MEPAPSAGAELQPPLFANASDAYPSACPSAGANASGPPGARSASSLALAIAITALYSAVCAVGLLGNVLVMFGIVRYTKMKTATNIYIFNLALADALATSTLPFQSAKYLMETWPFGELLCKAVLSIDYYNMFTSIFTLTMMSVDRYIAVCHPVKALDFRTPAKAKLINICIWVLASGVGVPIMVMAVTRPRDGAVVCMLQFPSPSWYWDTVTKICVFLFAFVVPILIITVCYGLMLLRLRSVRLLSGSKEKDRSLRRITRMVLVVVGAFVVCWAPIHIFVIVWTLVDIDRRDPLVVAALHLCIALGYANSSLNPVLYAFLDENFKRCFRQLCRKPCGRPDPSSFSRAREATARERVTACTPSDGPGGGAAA

[5] = target: 5-hydroxytryptamine receptor 5A (Homo sapiens, UniProt P47898); test: Counterscreen for agonists of OPRM1-OPRD1 heterodimerization: luminescence-based cell-based high throughput dose response assay to identify agonists of 5-hydroxytryptamine (serotonin) 5A receptor (HTR5A). [Related pubchem assays (depositor defined):AID504326, AID504355, AID504692, AID504904, AID504905]; type: functional
Sequence of 5-hydroxytryptamine receptor 5A (P47898 whole entry): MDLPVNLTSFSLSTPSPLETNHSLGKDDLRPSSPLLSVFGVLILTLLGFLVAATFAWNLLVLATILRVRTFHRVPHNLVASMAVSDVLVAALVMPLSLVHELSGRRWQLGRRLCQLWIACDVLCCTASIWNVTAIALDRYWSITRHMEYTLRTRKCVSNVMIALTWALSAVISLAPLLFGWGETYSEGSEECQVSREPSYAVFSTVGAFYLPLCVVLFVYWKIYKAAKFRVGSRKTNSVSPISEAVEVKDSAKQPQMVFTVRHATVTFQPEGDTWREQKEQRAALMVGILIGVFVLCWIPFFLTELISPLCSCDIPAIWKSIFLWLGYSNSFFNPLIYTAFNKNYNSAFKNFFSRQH

Mu-type opioid receptor = Mu-type opioid receptor (Homo sapiens, UniProt P35372); test: Counterscreen for agonists of heterodimerization of the mu 1 (OPRM1) and delta 1 (OPRD1) opioid receptors: Luminescence-based cell-based high throughput dose response assay to identify agonists of OPRM1 homodimerization.; type: functional;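 further: U2OS cells expressing OPRM1 and beta-arrestin as split beta-galactosidase partners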
Sequence of Mu-type opioid receptor (P35372 whole entry): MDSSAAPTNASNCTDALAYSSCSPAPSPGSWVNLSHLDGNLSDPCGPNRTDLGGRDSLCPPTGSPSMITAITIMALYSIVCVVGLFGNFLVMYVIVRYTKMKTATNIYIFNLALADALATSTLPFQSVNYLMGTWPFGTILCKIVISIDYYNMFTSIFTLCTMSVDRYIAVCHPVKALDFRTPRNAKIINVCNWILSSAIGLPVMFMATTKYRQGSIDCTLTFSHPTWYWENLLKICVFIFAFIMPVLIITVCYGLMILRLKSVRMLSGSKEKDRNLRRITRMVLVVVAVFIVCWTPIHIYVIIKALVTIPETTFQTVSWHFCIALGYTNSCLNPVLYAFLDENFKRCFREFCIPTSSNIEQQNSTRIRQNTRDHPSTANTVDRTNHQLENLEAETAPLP

Cytochrome P450 2D6 = Cytochrome P450 2D6 (Homo sapiens, UniProt P10635);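 further: CYP2D6 member of a cytochrome P450 panel assay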
Sequence of Cytochrome P450 2D6 (P10635 whole entry): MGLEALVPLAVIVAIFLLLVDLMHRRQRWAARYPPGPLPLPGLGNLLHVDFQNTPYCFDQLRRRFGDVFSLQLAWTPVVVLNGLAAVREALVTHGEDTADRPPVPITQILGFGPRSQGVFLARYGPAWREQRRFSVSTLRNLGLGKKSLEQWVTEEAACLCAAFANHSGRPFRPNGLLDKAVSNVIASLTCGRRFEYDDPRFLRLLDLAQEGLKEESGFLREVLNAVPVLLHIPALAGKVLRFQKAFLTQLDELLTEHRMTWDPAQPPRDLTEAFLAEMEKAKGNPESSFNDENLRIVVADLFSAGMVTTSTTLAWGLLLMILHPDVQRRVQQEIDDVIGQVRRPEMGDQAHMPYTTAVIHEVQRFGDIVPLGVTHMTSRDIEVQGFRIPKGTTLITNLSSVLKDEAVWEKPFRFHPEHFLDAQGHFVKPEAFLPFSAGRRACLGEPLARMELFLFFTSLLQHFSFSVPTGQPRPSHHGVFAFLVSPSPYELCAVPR

[6] = target: T4, Short transient receptor potential channel 4 (Mus musculus, UniProt Q9QUQ5); test: mouse TRPC4 channel activators, dose response, cell-based, HEK293 TRPC4/mu-opioid, Fluo-4 calcium (AID 434937); type: functional
T4 sequence (Q9QUQ5 whole entry): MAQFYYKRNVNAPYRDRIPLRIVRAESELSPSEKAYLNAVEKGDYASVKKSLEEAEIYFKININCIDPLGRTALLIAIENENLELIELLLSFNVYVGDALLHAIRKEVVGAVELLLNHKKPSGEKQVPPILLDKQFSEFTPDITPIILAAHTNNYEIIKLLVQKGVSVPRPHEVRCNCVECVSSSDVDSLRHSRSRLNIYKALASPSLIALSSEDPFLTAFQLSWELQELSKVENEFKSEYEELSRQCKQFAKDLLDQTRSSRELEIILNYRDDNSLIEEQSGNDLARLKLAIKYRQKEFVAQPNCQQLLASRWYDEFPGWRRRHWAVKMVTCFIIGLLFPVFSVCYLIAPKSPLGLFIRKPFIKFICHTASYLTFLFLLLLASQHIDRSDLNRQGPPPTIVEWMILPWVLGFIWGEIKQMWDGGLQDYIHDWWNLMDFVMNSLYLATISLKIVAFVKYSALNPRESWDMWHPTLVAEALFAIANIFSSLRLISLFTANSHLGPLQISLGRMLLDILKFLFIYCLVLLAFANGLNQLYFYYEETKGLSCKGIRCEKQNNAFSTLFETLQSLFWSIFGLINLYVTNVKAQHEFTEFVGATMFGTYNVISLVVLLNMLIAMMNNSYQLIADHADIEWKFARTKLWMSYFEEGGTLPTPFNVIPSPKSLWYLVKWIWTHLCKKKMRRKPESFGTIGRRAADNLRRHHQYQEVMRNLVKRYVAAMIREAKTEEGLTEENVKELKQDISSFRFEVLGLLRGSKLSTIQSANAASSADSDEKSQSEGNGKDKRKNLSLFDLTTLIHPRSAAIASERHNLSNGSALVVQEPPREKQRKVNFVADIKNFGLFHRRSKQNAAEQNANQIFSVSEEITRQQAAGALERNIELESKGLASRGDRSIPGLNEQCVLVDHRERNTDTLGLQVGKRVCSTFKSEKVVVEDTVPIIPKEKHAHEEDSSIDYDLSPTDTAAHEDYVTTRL

Cytochrome P450 2C9 = Cytochrome P450 2C9 (Homo sapiens, UniProt P11712)
Sequence of Cytochrome P450 2C9 (P11712 whole entry): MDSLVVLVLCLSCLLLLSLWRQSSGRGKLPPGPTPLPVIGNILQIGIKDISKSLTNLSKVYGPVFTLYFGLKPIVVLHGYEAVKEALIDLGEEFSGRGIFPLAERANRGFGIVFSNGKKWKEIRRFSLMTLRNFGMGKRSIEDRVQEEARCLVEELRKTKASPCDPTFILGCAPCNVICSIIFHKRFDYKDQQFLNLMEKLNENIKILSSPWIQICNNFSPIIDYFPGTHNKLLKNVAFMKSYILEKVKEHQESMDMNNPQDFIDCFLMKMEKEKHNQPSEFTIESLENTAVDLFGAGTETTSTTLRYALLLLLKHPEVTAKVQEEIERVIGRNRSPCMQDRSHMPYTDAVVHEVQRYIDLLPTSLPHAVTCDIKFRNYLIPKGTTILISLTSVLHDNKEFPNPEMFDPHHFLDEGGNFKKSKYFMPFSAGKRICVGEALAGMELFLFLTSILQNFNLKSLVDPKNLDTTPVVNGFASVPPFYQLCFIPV

Cytochrome P450 2C19 = Cytochrome P450 2C19 (Homo sapiens, UniProt P33261); test: Cytochrome panel assay with activity outcomes. Panel member name: p450-cyp2c19 Compounds with AC50 equal or less than 10 uM are considered active; type: functional; conditions: read-out: AC50
Sequence of Cytochrome P450 2C19 (P33261 whole entry): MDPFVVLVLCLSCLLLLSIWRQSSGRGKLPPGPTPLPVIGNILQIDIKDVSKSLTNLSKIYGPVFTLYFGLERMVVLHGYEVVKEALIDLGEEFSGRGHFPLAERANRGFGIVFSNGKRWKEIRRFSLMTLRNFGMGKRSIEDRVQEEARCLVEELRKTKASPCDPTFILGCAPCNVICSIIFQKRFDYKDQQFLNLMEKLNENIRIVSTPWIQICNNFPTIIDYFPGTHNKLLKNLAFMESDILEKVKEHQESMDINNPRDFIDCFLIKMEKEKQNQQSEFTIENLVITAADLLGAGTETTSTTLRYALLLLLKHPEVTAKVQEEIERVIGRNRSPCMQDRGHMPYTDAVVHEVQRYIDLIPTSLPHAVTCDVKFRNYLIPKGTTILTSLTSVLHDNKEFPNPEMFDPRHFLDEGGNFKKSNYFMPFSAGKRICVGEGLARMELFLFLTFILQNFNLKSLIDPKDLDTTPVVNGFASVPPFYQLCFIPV

Beta-galactosidase = Beta-galactosidase (Escherichia coli, UniProt Q8VNN2); test: PubChem AID 485352; type: functional
Sequence of Beta-galactosidase (Q8VNN2 whole entry): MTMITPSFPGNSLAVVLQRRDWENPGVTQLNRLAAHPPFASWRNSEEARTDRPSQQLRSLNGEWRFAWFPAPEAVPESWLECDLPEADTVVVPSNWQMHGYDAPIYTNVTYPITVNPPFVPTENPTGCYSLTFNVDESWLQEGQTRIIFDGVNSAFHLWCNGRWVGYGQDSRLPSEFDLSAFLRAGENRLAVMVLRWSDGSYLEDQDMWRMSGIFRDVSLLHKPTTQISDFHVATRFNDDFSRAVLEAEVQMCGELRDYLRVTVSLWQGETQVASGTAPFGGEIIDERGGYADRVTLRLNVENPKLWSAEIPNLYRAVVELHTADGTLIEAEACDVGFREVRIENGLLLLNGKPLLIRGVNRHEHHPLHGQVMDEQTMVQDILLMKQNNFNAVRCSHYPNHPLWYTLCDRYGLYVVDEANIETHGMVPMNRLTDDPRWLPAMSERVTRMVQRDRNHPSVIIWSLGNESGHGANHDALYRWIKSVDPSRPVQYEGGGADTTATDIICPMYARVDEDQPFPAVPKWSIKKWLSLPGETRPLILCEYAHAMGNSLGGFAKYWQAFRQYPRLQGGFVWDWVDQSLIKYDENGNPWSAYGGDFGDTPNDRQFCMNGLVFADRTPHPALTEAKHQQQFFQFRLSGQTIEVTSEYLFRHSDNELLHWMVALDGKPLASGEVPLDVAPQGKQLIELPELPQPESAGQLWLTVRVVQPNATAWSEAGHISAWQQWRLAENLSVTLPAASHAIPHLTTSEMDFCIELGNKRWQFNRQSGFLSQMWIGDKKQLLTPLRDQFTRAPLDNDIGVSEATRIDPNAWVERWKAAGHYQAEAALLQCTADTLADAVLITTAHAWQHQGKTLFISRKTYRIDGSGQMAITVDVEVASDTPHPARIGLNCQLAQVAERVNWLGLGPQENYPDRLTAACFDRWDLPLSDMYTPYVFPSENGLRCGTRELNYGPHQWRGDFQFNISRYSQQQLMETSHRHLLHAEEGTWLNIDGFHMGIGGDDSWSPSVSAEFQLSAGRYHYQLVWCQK

[7] = target: T5, Type-1 angiotensin II receptor (Homo sapiens, UniProt P30556); test: AT1 receptor antagonists, dose response, selectivity assay for APJ receptor antagonist project, cell-based, uHTS hits (AID 463214); type: functional;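 further: antagonist potency against angiotensin II stimulated AT1 response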
T5 sequence (P30556 whole entry): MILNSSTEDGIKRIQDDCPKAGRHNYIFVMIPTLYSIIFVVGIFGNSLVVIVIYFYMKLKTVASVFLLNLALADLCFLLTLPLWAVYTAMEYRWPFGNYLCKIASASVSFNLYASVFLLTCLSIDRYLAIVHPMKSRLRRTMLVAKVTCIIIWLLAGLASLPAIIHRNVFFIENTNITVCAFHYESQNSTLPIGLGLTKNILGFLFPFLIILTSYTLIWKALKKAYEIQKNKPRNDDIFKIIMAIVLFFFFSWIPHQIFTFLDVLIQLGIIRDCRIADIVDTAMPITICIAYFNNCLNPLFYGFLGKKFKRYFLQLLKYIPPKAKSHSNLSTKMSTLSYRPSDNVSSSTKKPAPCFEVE

DNA topoisomerase = target: T6, DNA topoisomerase (Yersinia pestis, UniProt A0A2S9PM60); test: Y. pestis Topo-I inhibitors, cleavage product readout, dose response, biochemical, cherry-pick (AID 588525)
T6 sequence (A0A2S9PM60 whole entry): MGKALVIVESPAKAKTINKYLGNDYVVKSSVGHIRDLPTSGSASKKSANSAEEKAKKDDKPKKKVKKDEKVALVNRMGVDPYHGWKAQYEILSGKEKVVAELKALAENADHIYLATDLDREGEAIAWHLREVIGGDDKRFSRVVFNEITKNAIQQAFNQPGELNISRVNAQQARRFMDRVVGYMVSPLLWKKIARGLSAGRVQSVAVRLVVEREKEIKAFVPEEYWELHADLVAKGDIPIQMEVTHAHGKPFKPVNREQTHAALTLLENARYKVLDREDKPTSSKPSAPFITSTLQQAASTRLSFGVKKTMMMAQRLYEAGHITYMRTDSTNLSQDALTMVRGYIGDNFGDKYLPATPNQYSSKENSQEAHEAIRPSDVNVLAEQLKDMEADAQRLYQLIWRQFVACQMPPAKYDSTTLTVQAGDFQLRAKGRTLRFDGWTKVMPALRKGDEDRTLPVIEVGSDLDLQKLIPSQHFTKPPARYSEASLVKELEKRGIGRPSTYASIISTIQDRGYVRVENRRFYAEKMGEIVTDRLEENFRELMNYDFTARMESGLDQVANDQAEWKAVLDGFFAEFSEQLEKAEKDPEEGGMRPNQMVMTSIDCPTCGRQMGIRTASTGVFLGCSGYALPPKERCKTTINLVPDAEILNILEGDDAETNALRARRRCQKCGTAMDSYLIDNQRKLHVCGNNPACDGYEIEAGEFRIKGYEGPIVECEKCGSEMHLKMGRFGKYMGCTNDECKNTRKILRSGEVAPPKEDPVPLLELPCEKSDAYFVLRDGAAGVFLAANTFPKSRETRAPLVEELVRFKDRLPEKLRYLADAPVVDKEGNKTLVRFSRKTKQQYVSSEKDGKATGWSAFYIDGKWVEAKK

[8] = HEp-2 cell cytotoxicity, dose response, cytotoxicity control for RSV inhibitor project, HTS (AID 2410); type: functional; conditions: human respiratory syncytial virus
[9] = target: T7, RNA-binding protein pos-1 (Caenorhabditis elegans, UniProt G5EF15); test: inhibitors of POS-1/mex-3 RNA binding, dose response, biochemical, fluorescence polarization (AID 1964);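 further: purified POS-1 fused to maltose binding protein made in E. coli; potency of compounds blocking POS-1 binding to fluorescent RNA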
T7 sequence (G5EF15 whole entry): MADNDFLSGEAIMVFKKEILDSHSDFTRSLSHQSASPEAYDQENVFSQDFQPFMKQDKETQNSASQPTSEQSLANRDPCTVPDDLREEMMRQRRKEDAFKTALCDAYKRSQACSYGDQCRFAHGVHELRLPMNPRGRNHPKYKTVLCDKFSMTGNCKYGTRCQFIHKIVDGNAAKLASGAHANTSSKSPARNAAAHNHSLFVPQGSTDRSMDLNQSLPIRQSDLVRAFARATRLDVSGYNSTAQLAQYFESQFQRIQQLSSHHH

[10] = target: T8, Zinc finger protein mex-5 (Caenorhabditis elegans, UniProt Q9XUB2); test: MEX-5/TCR-2 RNA interaction inhibitors, dose response, biochemical, C. elegans, fluorescence polarization (AID 1960)
T8 sequence (Q9XUB2 whole entry): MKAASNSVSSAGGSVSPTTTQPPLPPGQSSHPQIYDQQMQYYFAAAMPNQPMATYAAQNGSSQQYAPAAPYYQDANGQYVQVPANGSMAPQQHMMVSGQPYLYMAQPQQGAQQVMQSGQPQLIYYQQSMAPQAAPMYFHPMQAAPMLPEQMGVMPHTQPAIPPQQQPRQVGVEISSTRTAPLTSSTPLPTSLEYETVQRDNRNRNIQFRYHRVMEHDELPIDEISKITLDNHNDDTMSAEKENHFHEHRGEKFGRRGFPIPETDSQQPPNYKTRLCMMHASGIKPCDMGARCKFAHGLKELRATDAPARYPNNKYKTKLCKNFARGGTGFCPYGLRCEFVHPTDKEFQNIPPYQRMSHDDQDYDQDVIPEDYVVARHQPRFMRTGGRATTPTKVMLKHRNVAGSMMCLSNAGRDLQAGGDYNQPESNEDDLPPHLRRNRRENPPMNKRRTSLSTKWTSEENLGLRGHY

Sequence of Phospholipase A2 (P04054 whole entry): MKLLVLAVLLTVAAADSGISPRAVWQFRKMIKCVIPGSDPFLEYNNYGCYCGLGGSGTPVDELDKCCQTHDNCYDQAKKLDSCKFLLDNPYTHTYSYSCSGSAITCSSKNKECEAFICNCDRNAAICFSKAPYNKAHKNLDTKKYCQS

## NC(=O)c1ccc(C(F)(F)F)n(Cc2cccc(Cl)c2)c1=O
Phospholipase A2
  IC50: 3.93 µM (active)
[1]
  EC50: > 260 µM (inactive)
Cysteine protease ATG4B
  IC50: 26.3 µM (inactive)

## N#Cc1ccc(-c2cccnc2)nc1SCC(=O)c1ccccc1
[2]
  EC50: 35.9 µM (inactive)
[3]
  EC50: 23.3 µM (inactive)

## CN(C)C(CNC(=O)NC1CCCCC1)c1cccnc1 (configuration not stated)
[4]
  EC50: > 92.5 µM (inactive)
[5]
  EC50: > 92.5 µM (inactive)
Mu-type opioid receptor
  EC50: > 92.5 µM (inactive)
Cytochrome P450 2D6
  AC50: 31.6 µM (inconclusive)
[6]
  EC50: 0.06 µM (active)
Cytochrome P450 2C9
  AC50: 0.398 µM (inconclusive)
Cytochrome P450 2C19
  AC50: 25.1 µM (inconclusive)

## Cc1ccc(C2=C/C(=C/c3cccs3)C(=O)O2)cc1
[2]
  EC50: 28.2 µM (inactive)
[3]
  EC50: > 99 µM (inactive)

## O=C(c1ccc(-n2c(SCc3cc(F)ccc3F)nc3ccccc3c2=O)cc1)N1CCOCC1
Phospholipase A2
  IC50: 11.7 µM (active)
Cysteine protease ATG4B
  IC50: 8.7 µM (active)

## Cc1ccc(C(=O)CNc2cccc(Cl)c2)cc1
Beta-galactosidase
  EC50: > 40 µM (inactive)
[7]
  IC50: 9.87 µM (active)
DNA topoisomerase
  AC50: 21.7 µM (active)

## O=C1CN(C(=O)CSc2nc3cc(Cl)ccc3c(=O)n2Cc2ccccc2)c2ccccc2N1
[8]
  CC50: 46.4 µM (active)
DNA topoisomerase
  AC50: 9.89 µM (active)

## O=C(O)c1ccc(C[n+]2c(-c3ccccc3)csc2Nc2ccccc2)cc1
Phospholipase A2
  IC50: > 80 µM (inactive)
Cysteine protease ATG4B
  IC50: 15.1 µM (active)

## COc1ccc(/C=C/c2nc3sc4c(c3c(=O)o2)CCC4)cc1
[9]
  EC50: 6.97 µM (inconclusive)
[10]
  EC50: 125 µM (inconclusive)
[2]
  EC50: > 99 µM (inactive)
[3]
  EC50: 46.6 µM (inactive)
